Literature values as cited in patent US20050100563A1, “Antifungal compositions and methods of treatment therewith” (priority 2001, published 2005).

Details: in water; stated in parentheses, no measurement described

[O]=[Sn]([F])[F] [stannic oxyfluoride]
solubility: approximately 0.3%
